The experiment deals with A. baumannii AB5075. The experiment can be described thus: Resistance studies (agar plates and 21-day serial passaging). The format is cell-based, Acinetobacter baumannii. The following applies: for MIC: Acinetobacter baumannii. The method, then:
To test for spontaneous development of resistance to PGG, A. baumannii AB5075 was inoculated on agar plates containing PGG at 0.5×MIC, 1×MIC, and 2×MIC (128, 256, and 512 μg/mL, respectively), and a control plate containing no PGG. […] Next, evolution of resistance was tested by serial passaging A. baumannii AB5075 for 21 days in the presence of a PGG gradient, using culture from the 0.5×MIC treatment for each subsequent passage. Serial passaging with a tetracycline gradient served as a control.

In brackets after ≈: the same amount, converted by molar mass. Read-outs that look alike come from different tables or passages of the source.

Usually MIC stands for the lowest concentration found to suppress growth.

Consider `CN(C)[C@@H]1C(O)=C(C(N)=O)C(=O)[C@@]2(O)C(O)=C3C(=O)c4c(O)cccc4[C@@](C)(O)[C@H]3C[C@@H]12` [tetracycline, reference compound], for which the “fold increase in MIC” value (A. baumannii, after 10 passages) is listed as 16 fold. Moreover, the minimal inhibitory concentration (MIC) by setting is: (AB5075, read-out: Base MIC) 4 µg/mL (≈ 9 µM); (AB5075, read-out: MIC after serial passaging) 64 µg/mL (≈ 144 µM).

The values above are taken from patent publication US20260272964A1, “PENTAGALLOYL GLUCOSE DERIVED FROM SCHINUS PLANTS AND METHODS OF USE” (Emory University, priority 2020, published 2026).
